Test results: patent US20230089557A1, “METHODS OF TREATING DLBCL USING BTK INHIBITORS AND COMBINATIONS THEREOF” (BEIGENE SWITZERLAND GMBH, priority 2020, published 2023)

Tested on: R/R non-GCB DLBCL
Assay: Compound 1 in combination with anti-CD20 antibody in patients with R/R non-GCB DLBCL
Assay type: in vivo, human
Settings: for unadjusted ORR: non-GCB DLBCL
Description: A total of 121 patients with R/R non-GCB DLBCL were recruited in four Compound 1 treatment studies that were conducted at a similar time period. Two of the four studies were Compound 1 monotherapy (n=79) and two were Compound 1 combined with an anti-CD20 antibody therapy (n=42). Similar inclusion and exclusion criteria and response evaluation criteria were used across all studies. Fifty-six non-GCB patients were further subtyped by gene expression profiling (GEP) using the HTG EdgeSeq DLBCL Cell of Origin Assay. The expression of approximately 90 lymphoma-associated genes from the HTG GEP assay were analyzed by R package limma for correlation with response to Compound 1 treatment. Seventy-seven patient samples were tested by next-generation sequencing (NGS) with a panel of genes. Chi-square test was used to evaluate the correlation between mutations and the objective response rate (ORR).
Combination therapy schedule 1: Compound 1 was administered orally every day in each cycle at 160 mg BID in 28-day cycles, in combination with obinutuzumab, in patients with R/R non-GCB DLBCL. Obinutuzumab was administered for up to 6 cycles consistent with the U.S. label regimen (100 mg at Day 1 Cycle 1, 1000 mg at Day 8 and Day 15, 900 mg at Day 2 Cycle 1 followed by 1000 mg on day one of cycles 2-6).
Combination therapy schedule 2: Compound 1 was administrated orally every day in each cycle at 160 mg BID in 28-day cycles, in combination with rituximab, in patients with R/R non-GCB DLBCL. Rituximab was administered at 375 mg/m2 intravenously on Cycle 1 Days 1, 8, 15, 22, and on Day 1 of Cycles 4, 6, 8, 10. Compound 1 was administered at least 30 minutes prior to the initiation of the rituximab infusion.
42 patients with non-GCB DLBCL were subjected to Compound 1 plus anti-CD20 antibody Combination therapy schedule 1 or 2.

[1] = combination therapy Total (N = 42), ABC Subtype of DLBCL Patients
[2] = combination therapy Total (N = 42), CD79B ITAM_Mut
[3] = combination therapy Total (N = 42), CD79B ITAM_WT
[4] = combination therapy Total (N = 42), CD79B_Mut
[5] = combination therapy Total (N = 42), CD79B_WT
[6] = combination therapy Total (N = 42), MYD88_L265P
[7] = combination therapy Total (N = 42), MYD88_L265P/CD79B_Mut
[8] = combination therapy Total (N = 42), MYD88_WT
[9] = combination therapy Total (N = 42), NOTCH1_Mut
[10] = combination therapy Total (N = 42), NOTCH1_WT
[11] = combination therapy Total (N = 42), Non-GCB DLBCL Patients
[12] = combination therapy Total (N = 42), Non-GCB DLBCL Patients with Sequence Available
[13] = combination therapy Total (N = 42), Other (not MYD88_L265P/CD79B_Mut)
[14] = combination therapy Total (N = 42), Patients with Sequence Available
[15] = plus obinutuzumab (N = 22), ABC Subtype of DLBCL Patients
[16] = plus obinutuzumab (N = 22), CD79B ITAM_Mut
[17] = plus obinutuzumab (N = 22), CD79B ITAM_WT
[18] = plus obinutuzumab (N = 22), CD79B_Mut
[19] = plus obinutuzumab (N = 22), CD79B_WT
[20] = plus obinutuzumab (N = 22), MYD88_L265P
[21] = plus obinutuzumab (N = 22), MYD88_L265P/CD79B_Mut
[22] = plus obinutuzumab (N = 22), MYD88_WT
[23] = plus obinutuzumab (N = 22), NOTCH1_Mut
[24] = plus obinutuzumab (N = 22), NOTCH1_WT
[25] = plus obinutuzumab (N = 22), Non-GCB DLBCL Patients
[26] = plus obinutuzumab (N = 22), Non-GCB DLBCL Patients with Sequence Available
[27] = plus obinutuzumab (N = 22), Other (not MYD88_L265P/CD79B_Mut)
[28] = plus obinutuzumab (N = 22), Patients with Sequence Available
[29] = plus rituximab (N = 20), ABC Subtype of DLBCL Patients
[30] = plus rituximab (N = 20), CD79B ITAM_Mut
[31] = plus rituximab (N = 20), CD79B ITAM_WT
[32] = plus rituximab (N = 20), CD79B_Mut
[33] = plus rituximab (N = 20), CD79B_WT
[34] = plus rituximab (N = 20), MYD88_L265P
[35] = plus rituximab (N = 20), MYD88_L265P/CD79B_Mut
[36] = plus rituximab (N = 20), MYD88_WT
[37] = plus rituximab (N = 20), NOTCH1_Mut
[38] = plus rituximab (N = 20), NOTCH1_WT
[39] = plus rituximab (N = 20), Non-GCB DLBCL Patients
[40] = plus rituximab (N = 20), Non-GCB DLBCL Patients with Sequence Available
[41] = plus rituximab (N = 20), Other (not MYD88_L265P/CD79B_Mut)
[42] = plus rituximab (N = 20), Patients with Sequence Available

C=CC(=O)N1CCC([C@@H]2CCNc3c(C(N)=O)c(-c4ccc(Oc5ccccc5)cc4)nn32)CC1 [Compound 1, (S)-7-(1-acryloylpiperidin-4-yl)-2-(4-phenoxyphenyl)-4,5,6,7-tetra-hydropyrazolo[1,5-a]pyrimidine-3-carboxamide]
ORR (GEP-confirmed activated B-cell DLBCL, first of the two combo-therapies (obinutuzumab)): 50%
ORR (GEP-confirmed activated B-cell DLBCL, second of the two combo-therapies (rituximab)): 40%
ORR [1]: 45.5
Response/Patients [1]: 5/11
ORR [2]: 83.3
Response/Patients [2]: 5/6
Difference in ORR (95% CI) (combination therapy Total (N = 42), CD79B ITAM_Mut vs CD79B ITAM_WT): 61.1
ORR [3]: 22.2
Response/Patients [3]: 6/27
ORR [4]: 75.0
Response/Patients [4]: 6/8
Difference in ORR (95% CI) (combination therapy Total (N = 42), CD79B_Mut vs CD79B_WT): 55.0
ORR [5]: 20.0
Response/Patients [5]: 5/25
ORR [6]: 66.7
Response/Patients [6]: 4/6
Difference in ORR (95% CI) (combination therapy Total (N = 42), MYD88_L265P vs MYD88_WT): 40.7
ORR [7]: 75.0
Response/Patients [7]: 3/4
Difference in ORR (95% CI) (combination therapy Total (N = 42), MYD88_L265P/CD79B_Mut vs Other): 47.4
ORR [8]: 25.9
Response/Patients [8]: 7/27
ORR [9]: 40.0
Response/Patients [9]: 2/5
Difference in ORR (95% CI) (combination therapy Total (N = 42), NOTCH1_Mut vs NOTCH1_WT): 7.9
ORR [10]: 32.1
Response/Patients [10]: 9/28
ORR [11]: 28.6
Response/Patients [11]: 12/42
ORR [12]: 33.3
Response/Patients [12]: 11/33
ORR [13]: 27.6
Response/Patients [13]: 8/29
ORR [14]: 35.3
Response/Patients [14]: 12/34
unadjusted ORR (first of the two combo-therapies (obinutuzumab)): 22.7%
unadjusted ORR (second of the two combo-therapies (rituximab)): 35%
ORR [15]: 50.0
Response/Patients [15]: 3/6
ORR [16]: 100.0
Response/Patients [16]: 3/3
Difference in ORR (95% CI) (plus obinutuzumab (N = 22), CD79B ITAM_Mut vs CD79B ITAM_WT, in %): 91.7
ORR [17]: 8.3
Response/Patients [17]: 1/12
ORR [18]: 100.0
Response/Patients [18]: 3/3
Difference in ORR (95% CI) (plus obinutuzumab (N = 22), CD79B_Mut vs CD79B_WT, in %): 91.7
ORR [19]: 8.3
Response/Patients [19]: 1/12
ORR [20]: 100.0
Response/Patients [20]: 3/3
Difference in ORR (95% CI) (plus obinutuzumab (N = 22), MYD88_L265P vs MYD88_WT, in %): 91.7
ORR [21]: 100.0
Response/Patients [21]: 3/3
Difference in ORR (95% CI) (plus obinutuzumab (N = 22), MYD88_L265P/CD79B_Mut vs Other, in %): 91.7
ORR [22]: 8.3
Response/Patients [22]: 1/12
ORR [23]: 66.7
Response/Patients [23]: 2/3
Difference in ORR (95% CI) (plus obinutuzumab (N = 22), NOTCH1_Mut vs NOTCH1_WT): 50.0
ORR [24]: 16.7
Response/Patients [24]: 2/12
ORR [25]: 22.7
Response/Patients [25]: 5/22
ORR [26]: 26.7
Response/Patients [26]: 4/15
ORR [27]: 8.3
Response/Patients [27]: 1/12
ORR [28]: 31.3
Response/Patients [28]: 5/16
ORR [29]: 40.0
Response/Patients [29]: 2/5
ORR [30]: 66.7
Response/Patients [30]: 2/3
Difference in ORR (95% CI) (plus rituximab (N = 20), CD79B ITAM_Mut vs CD79B ITAM_WT): 33.3
ORR [31]: 33.3
Response/Patients [31]: 5/15
ORR [32]: 60.0
Response/Patients [32]: 3/5
Difference in ORR (95% CI) (plus rituximab (N = 20), CD79B_Mut vs CD79B_WT): 29.2
ORR [33]: 30.8
Response/Patients [33]: 4/13
ORR [34]: 33.3
Response/Patients [34]: 1/3
Difference in ORR (95% CI) (plus rituximab (N = 20), MYD88_L265P vs MYD88_WT): −6.7
ORR [35]: 0.0
Response/Patients [35]: 0/1
Difference in ORR (95% CI) (plus rituximab (N = 20), MYD88_L265P/CD79B_Mut vs Other): −41.2
ORR [36]: 40.0
Response/Patients [36]: 6/15
ORR [37]: 0.0
Response/Patients [37]: 0/2
Difference in ORR (95% CI) (plus rituximab (N = 20), NOTCH1_Mut vs NOTCH1_WT): −43.8
ORR [38]: 43.8
Response/Patients [38]: 7/16
ORR [39]: 35.0
Response/Patients [39]: 7/20
ORR [40]: 38.9
Response/Patients [40]: 7/18
ORR [41]: 41.2
Response/Patients [41]: 7/17
ORR [42]: 38.9
Response/Patients [42]: 7/18
